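Dose response: 5 concentrations. Exposure: 48 h. Format: 96-well plates. Endpoint: linear interpolation; highest concentration if not reached. GI50 = concentration required for 50% inhibition of growth. The concentration for full growth arrest is given as TGI.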
What was measured:
Experiment in all cases: NCI anticancer screen, dose series, 48 h
CAKI-1 renal = tested on: CAKI-1 renal
DMS 114 small cell lung = tested on: DMS 114 small cell lung
EKVX NSCLC = tested on: EKVX NSCLC
HCT-116 colon = tested on: HCT-116 colon
HOP-18 NSCLC = tested on: HOP-18 NSCLC
KM20L2 colon = tested on: KM20L2 colon
LXFL 529 NSCLC = tested on: LXFL 529 NSCLC
M19-MEL melanoma = tested on: M19-MEL melanoma
NCI-H226 lung = tested on: NCI-H226 lung
OVCAR-4 ovarian = tested on: OVCAR-4 ovarian
SF-268 CNS = tested on: SF-268 CNS
SK-MEL-28 melanoma = tested on: SK-MEL-28 melanoma
U251 CNS = tested on: U251 CNS
UACC-257 melanoma = tested on: UACC-257 melanoma
MDA-MB-231 breast = tested on: MDA-MB-231 breast
MDA-N = tested on: MDA-N

O=c1cc(-c2ccc3c(c2)OCO3)[nH]c2cc3c(cc12)OCO3
TGI (CAKI-1 renal): > 100 µM
GI50 (DMS 114 small cell lung): 24 µM
TGI (DMS 114 small cell lung): 96.1 µM
TGI (EKVX NSCLC): > 100 µM
GI50 (HCT-116 colon): 38 µM
TGI (HCT-116 colon): > 100 µM
TGI (HOP-18 NSCLC): > 100 µM
GI50 (KM20L2 colon): 26.6 µM
TGI (KM20L2 colon): 74.5 µM
TGI (LXFL 529 NSCLC): > 100 µM
TGI (M19-MEL melanoma): 78.2 µM
TGI (NCI-H226 lung): > 100 µM
TGI (OVCAR-4 ovarian): > 100 µM
GI50 (SF-268 CNS): 46.8 µM
TGI (SF-268 CNS): > 100 µM
TGI (SK-MEL-28 melanoma): > 100 µM
TGI (U251 CNS): 99 µM

CCOC(=O)/C(=C/c1ccc(OC)cc1)N(CC)CC
TGI (CAKI-1 renal): > 100 µM
TGI (DMS 114 small cell lung): > 100 µM
TGI (EKVX NSCLC): > 100 µM
TGI (HCT-116 colon): > 100 µM
TGI (KM20L2 colon): > 100 µM
TGI (LXFL 529 NSCLC): > 100 µM
TGI (M19-MEL melanoma): > 100 µM
TGI (NCI-H226 lung): > 100 µM
TGI (OVCAR-4 ovarian): > 100 µM
TGI (SF-268 CNS): > 100 µM
TGI (SK-MEL-28 melanoma): > 100 µM
TGI (U251 CNS): > 100 µM
TGI (UACC-257 melanoma): > 100 µM

CNC(=O)NCCCC(NC(C)=O)C(=O)NCc1ccccc1 (stereo unspecified)
TGI (CAKI-1 renal): > 100 µM
TGI (DMS 114 small cell lung): > 100 µM
TGI (EKVX NSCLC): > 100 µM
TGI (HCT-116 colon): > 100 µM
TGI (KM20L2 colon): > 100 µM
TGI (LXFL 529 NSCLC): > 100 µM
TGI (M19-MEL melanoma): > 100 µM
TGI (NCI-H226 lung): > 100 µM
TGI (OVCAR-4 ovarian): > 100 µM
TGI (SF-268 CNS): > 100 µM
TGI (SK-MEL-28 melanoma): > 100 µM
TGI (U251 CNS): > 100 µM
TGI (UACC-257 melanoma): > 100 µM

COCCOCOC(CCCCO)c1cc(C)c(O[Si](C)(C)C(C)(C)C)c(C)c1 (stereo unspecified)
TGI (DMS 114 small cell lung): 10.2 µM
TGI (EKVX NSCLC): 22.6 µM
TGI (HOP-18 NSCLC): 30.8 µM
TGI (KM20L2 colon): 17.9 µM
TGI (LXFL 529 NSCLC): 22.6 µM
TGI (M19-MEL melanoma): 18 µM
TGI (NCI-H226 lung): 10.3 µM
TGI (SF-268 CNS): 20.4 µM
TGI (SK-MEL-28 melanoma): 25.2 µM
TGI (U251 CNS): 23.6 µM
TGI (UACC-257 melanoma): 15.7 µM

CC(=O)OCCOCNC(=S)N/N=C/c1ccc([N+](=O)[O-])o1
TGI (DMS 114 small cell lung): 43.1 µM
TGI (EKVX NSCLC): > 100 µM
TGI (HCT-116 colon): > 100 µM
TGI (HOP-18 NSCLC): > 100 µM
TGI (KM20L2 colon): > 100 µM
TGI (LXFL 529 NSCLC): > 100 µM
TGI (M19-MEL melanoma): 31 µM
TGI (NCI-H226 lung): > 100 µM
TGI (OVCAR-4 ovarian): > 100 µM
TGI (SF-268 CNS): > 100 µM
TGI (SK-MEL-28 melanoma): > 100 µM
TGI (U251 CNS): > 100 µM
TGI (UACC-257 melanoma): > 100 µM

COc1cc(C2C(Cl)C(=O)N2n2cnc3ccccc3c2=O)ccc1O (stereo unspecified)
TGI (CAKI-1 renal): > 100 µM
TGI (DMS 114 small cell lung): > 100 µM
TGI (EKVX NSCLC): > 100 µM
TGI (HCT-116 colon): > 100 µM
TGI (HOP-18 NSCLC): > 100 µM
TGI (KM20L2 colon): > 100 µM
TGI (LXFL 529 NSCLC): > 100 µM
TGI (M19-MEL melanoma): > 100 µM
TGI (NCI-H226 lung): > 100 µM
TGI (OVCAR-4 ovarian): > 100 µM
TGI (SF-268 CNS): > 100 µM
TGI (SK-MEL-28 melanoma): > 100 µM
TGI (U251 CNS): > 100 µM
TGI (UACC-257 melanoma): 99.6 µM

COc1cc(-c2cccs2)sc1-c1cccs1
TGI (DMS 114 small cell lung): 94.3 µM
TGI (EKVX NSCLC): > 100 µM
TGI (HCT-116 colon): > 100 µM
TGI (HOP-18 NSCLC): 17.2 µM
TGI (KM20L2 colon): 85.1 µM
TGI (LXFL 529 NSCLC): > 100 µM
TGI (M19-MEL melanoma): > 100 µM
TGI (NCI-H226 lung): > 100 µM
TGI (OVCAR-4 ovarian): > 100 µM
TGI (SF-268 CNS): > 100 µM
TGI (SK-MEL-28 melanoma): > 100 µM
TGI (U251 CNS): > 100 µM
TGI (UACC-257 melanoma): > 100 µM

COc1ccc(C2Oc3cc(OC)c(OC)cc3C2CCl)cc1OC (stereo unspecified)
TGI (CAKI-1 renal): > 100 µM
TGI (DMS 114 small cell lung): > 100 µM
TGI (EKVX NSCLC): > 100 µM
TGI (HCT-116 colon): > 100 µM
TGI (KM20L2 colon): > 100 µM
TGI (LXFL 529 NSCLC): > 100 µM
TGI (M19-MEL melanoma): > 100 µM
TGI (NCI-H226 lung): > 100 µM
TGI (OVCAR-4 ovarian): > 100 µM
TGI (SF-268 CNS): > 100 µM
TGI (SK-MEL-28 melanoma): > 100 µM
TGI (U251 CNS): > 100 µM
TGI (UACC-257 melanoma): > 100 µM

CCCC/C=C/C=C/C=C/CCCCCCCC(=O)OCC(COC(=O)CCCCCCC/C=C/C1C=CC(CCCC)C(C(=O)O)C1C(=O)O)OC(=O)CCCCCCC/C=C/C=C/C=C/CCCC (stereo unspecified) (tested in a mixture with another compound)
TGI (CAKI-1 renal): 76.1 µM
TGI (DMS 114 small cell lung): 23.1 µM
TGI (EKVX NSCLC): 43.4 µM
TGI (HCT-116 colon): 30.7 µM
TGI (HOP-18 NSCLC): 47.8 µM
TGI (KM20L2 colon): 48.1 µM
TGI (LXFL 529 NSCLC): 32.8 µM
TGI (M19-MEL melanoma): 36.9 µM
TGI (NCI-H226 lung): 35.8 µM
TGI (OVCAR-4 ovarian): 34.7 µM
TGI (SF-268 CNS): 36.1 µM
TGI (SK-MEL-28 melanoma): 33.3 µM
TGI (UACC-257 melanoma): 34.9 µM

O=C1C(Br)=C(Br)C(=O)c2ccc(=O)ccc21
TGI (CAKI-1 renal): 64.2 µM
TGI (DMS 114 small cell lung): 39.2 µM
TGI (EKVX NSCLC): > 90.9 µM
TGI (HCT-116 colon): 39.1 µM
TGI (HOP-18 NSCLC): 57 µM
TGI (KM20L2 colon): > 100 µM
TGI (LXFL 529 NSCLC): 31.7 µM
TGI (M19-MEL melanoma): 32.5 µM
TGI (MDA-MB-231 breast): 35.9 µM
TGI (MDA-N): 44.8 µM
TGI (NCI-H226 lung): > 100 µM
TGI (OVCAR-4 ovarian): 32.7 µM
TGI (SF-268 CNS): > 77 µM
TGI (SK-MEL-28 melanoma): 52 µM
TGI (U251 CNS): 61.4 µM
TGI (UACC-257 melanoma): 58.3 µM
